Source: the NIST ThermoML archive (doi:10.1016/j.fluid.2004.09.013)

Conditions: for mass density: Fluid (supercritical or subcritical phases), Vibrating tube method; for vapor or sublimation pressure: Liquid

C/C=C\C [(Z)-2-butene]
Conditions	mass density [kg/m3]
393.23 K, 9997 kPa	513.82
393.23 K, 15000 kPa	529.93
393.23 K, 20002 kPa	542.79
393.23 K, 24993 kPa	553.61
393.23 K, 29998 kPa	563
393.23 K, 35001 kPa	571.39
393.23 K, 39987 kPa	578.89
398.23 K, 2818 kPa	466.01
398.23 K, 4984 kPa	481.85
398.23 K, 20014 kPa	537.23
398.23 K, 25003 kPa	548.52
398.23 K, 34998 kPa	566.9
398.23 K, 39994 kPa	574.66
398.24 K, 9988 kPa	506.47
398.24 K, 14995 kPa	523.68
398.24 K, 29983 kPa	558.24
403.23 K, 3025 kPa	454.7
403.23 K, 14991 kPa	517.31
403.23 K, 25002 kPa	543.35
403.23 K, 29989 kPa	553.46
403.23 K, 34986 kPa	562.37
403.23 K, 39984 kPa	570.38
403.24 K, 4991 kPa	471.74
403.24 K, 9985 kPa	498.93
403.24 K, 20009 kPa	531.6
408.23 K, 14993 kPa	510.87
408.23 K, 29988 kPa	548.67
408.23 K, 39992 kPa	566.14
408.24 K, 3245 kPa	443.06
408.24 K, 5000 kPa	461.02
408.24 K, 10003 kPa	491.26
408.24 K, 20000 kPa	525.89
408.24 K, 25002 kPa	538.19
408.24 K, 35001 kPa	557.91
413.23 K, 34991 kPa	553.36
413.23 K, 39999 kPa	561.87
413.24 K, 3479 kPa	430.52
413.24 K, 4987 kPa	448.83
413.24 K, 9995 kPa	483.23
413.24 K, 14993 kPa	504.29
413.24 K, 20000 kPa	520.13
413.24 K, 25001 kPa	532.97
413.24 K, 29987 kPa	543.83
418.23 K, 9989 kPa	474.95
418.23 K, 29990 kPa	538.98
418.24 K, 3727 kPa	416.94
418.24 K, 4983 kPa	435.78
418.24 K, 14999 kPa	497.65
418.24 K, 19989 kPa	514.28
418.24 K, 24991 kPa	527.69
418.24 K, 35007 kPa	548.86
418.24 K, 40000 kPa	557.55
423.24 K, 3987 kPa	401.93
423.24 K, 4998 kPa	421.22
423.24 K, 9996 kPa	466.36
423.24 K, 14993 kPa	490.76
423.24 K, 19998 kPa	508.37
423.24 K, 24983 kPa	522.32
423.24 K, 30000 kPa	534.08
423.24 K, 34984 kPa	544.2
423.24 K, 39995 kPa	553.2
428.24 K, 4261 kPa	385.43
428.24 K, 4996 kPa	404.14
428.24 K, 10003 kPa	457.53
428.24 K, 14984 kPa	483.8
428.24 K, 20011 kPa	502.46
428.24 K, 24985 kPa	517
428.24 K, 29987 kPa	529.17
428.24 K, 34985 kPa	539.65
428.24 K, 40008 kPa	548.93
433.24 K, 4552 kPa	367.25
433.24 K, 5002 kPa	383.51
433.24 K, 9988 kPa	448.25
433.24 K, 15006 kPa	476.83
433.24 K, 20002 kPa	496.43
433.24 K, 24994 kPa	511.67
433.24 K, 29984 kPa	524.27
433.24 K, 35007 kPa	535.14
433.24 K, 39990 kPa	544.63
438.24 K, 5016 kPa	356.57
438.24 K, 9984 kPa	438.25
438.24 K, 15001 kPa	469.64
438.24 K, 20003 kPa	490.38
438.24 K, 24991 kPa	506.29
438.24 K, 29997 kPa	519.4
438.24 K, 35007 kPa	530.6
438.24 K, 39994 kPa	540.34
443.23 K, 5019 kPa	312.48
443.24 K, 10006 kPa	428.67
443.24 K, 14981 kPa	462.28
443.24 K, 20008 kPa	484.35
443.24 K, 24985 kPa	500.93
443.24 K, 29991 kPa	514.54
443.24 K, 34987 kPa	526.05
443.24 K, 39991 kPa	536.15
448.23 K, 5020 kPa	224.32
448.24 K, 9992 kPa	418.15
448.24 K, 15006 kPa	454.98
448.24 K, 20001 kPa	478.13
448.24 K, 24996 kPa	495.5
448.24 K, 30011 kPa	509.66
448.24 K, 34990 kPa	521.51
448.24 K, 39989 kPa	531.87
453.24 K, 5018 kPa	172.57
453.24 K, 9981 kPa	407.03
453.24 K, 14999 kPa	447.35
453.24 K, 20011 kPa	471.95
453.24 K, 24994 kPa	490.05

Conditions	vapor or sublimation pressure [kPa]
396.4 K	2209.3
400.36 K	2343.2
407.79 K	2693.7
414.25 K	3004.6
416.29 K	3089.5
422.73 K	3456.3
425.59 K	3598.4
430.42 K	3884.7
433.88 K	4101.1
